Reference: PubChem BioAssay AID588524 (Sanford-Burnham Center for Chemical Genomics, 2011)
pIC50: −log10 of the molar value.

These compounds were tested against Apoptotic protease-activating factor 1 (Homo sapiens) (UniProt O14727) (assay: Apaf-1 assay inhibition concentration curves – fluorescence, uHTS hits, dose response (AID 588524)). Conditions: Apaf-1 apoptosome assay, fluorescence read-out.
Sequence of Apoptotic protease-activating factor 1 (Homo sapiens) (O14727 whole entry, looked up): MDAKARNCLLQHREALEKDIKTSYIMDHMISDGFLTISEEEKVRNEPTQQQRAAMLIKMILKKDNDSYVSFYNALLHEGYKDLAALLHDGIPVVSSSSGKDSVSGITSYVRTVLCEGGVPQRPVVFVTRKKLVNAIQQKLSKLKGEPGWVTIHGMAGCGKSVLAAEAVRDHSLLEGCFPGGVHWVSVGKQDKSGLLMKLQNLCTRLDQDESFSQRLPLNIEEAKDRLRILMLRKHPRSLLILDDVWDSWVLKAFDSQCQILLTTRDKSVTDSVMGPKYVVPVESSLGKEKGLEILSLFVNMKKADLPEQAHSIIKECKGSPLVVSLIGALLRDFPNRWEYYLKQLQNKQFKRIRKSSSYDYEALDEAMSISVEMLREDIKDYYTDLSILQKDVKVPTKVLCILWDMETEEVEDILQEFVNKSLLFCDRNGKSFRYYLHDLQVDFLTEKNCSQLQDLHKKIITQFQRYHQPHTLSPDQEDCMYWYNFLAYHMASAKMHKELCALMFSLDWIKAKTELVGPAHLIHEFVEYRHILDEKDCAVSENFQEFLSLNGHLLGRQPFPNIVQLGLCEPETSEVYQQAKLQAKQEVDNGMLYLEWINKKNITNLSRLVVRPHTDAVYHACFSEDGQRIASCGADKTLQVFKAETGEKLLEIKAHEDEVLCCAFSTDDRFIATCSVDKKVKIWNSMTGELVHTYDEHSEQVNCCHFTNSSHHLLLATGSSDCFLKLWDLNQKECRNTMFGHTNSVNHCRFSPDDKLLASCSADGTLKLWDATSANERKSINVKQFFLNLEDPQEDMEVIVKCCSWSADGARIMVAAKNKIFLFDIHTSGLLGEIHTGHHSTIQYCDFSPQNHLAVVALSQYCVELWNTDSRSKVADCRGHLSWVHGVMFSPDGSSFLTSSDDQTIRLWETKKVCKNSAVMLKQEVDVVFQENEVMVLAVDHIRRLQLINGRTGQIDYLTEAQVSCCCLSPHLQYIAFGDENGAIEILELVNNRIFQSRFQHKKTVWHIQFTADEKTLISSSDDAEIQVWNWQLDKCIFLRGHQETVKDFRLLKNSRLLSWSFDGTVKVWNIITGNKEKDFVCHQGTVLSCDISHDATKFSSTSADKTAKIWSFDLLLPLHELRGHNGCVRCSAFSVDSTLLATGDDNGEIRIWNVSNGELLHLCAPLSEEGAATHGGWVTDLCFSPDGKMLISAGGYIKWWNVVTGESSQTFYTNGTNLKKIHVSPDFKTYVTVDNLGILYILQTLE

Structure (SMILES) | pIC50
CCCCCCCCCCCCCCCC[n+]1ccc(/C=N/O)cc1 | 4.53
C[n+]1c(-c2ccccc2)c2cc(N)ccc2c2ccc(N)cc21 | 4.61
C#CCOCCOCCOCCNc1nc(N2CCN(C(=O)CCCCCCCCCCNC(=O)Cn3cc(CCCCCN)nn3)CC2)nc(N2CCN(C(=O)CCCCCCCCCCNC(=O)Cn3cc(CCCCCN)nn3)CC2)n1 | 4.46
C#CCOCCOCCOCCNc1nc(N2CCN(C(=O)CCCCCCCCCCNC(=O)[C@H](CCCCN)n3cc(C)nn3)CC2)nc(N2CCN(C(=O)CCCCCCCCCCNC(=O)[C@H](CCCN=C(N)N)n3cc(C[C@@H](C)CC)nn3)CC2)n1 | 4.82
C#CCOCCOCCOCCNc1nc(N2CCN(C(=O)CCCCCCCCCCNC(=O)Cn3cc(CCCCCN)nn3)CC2)nc(N2CCN(C(=O)CCCCCCCCCCNC(=O)[C@H]([C@@H](C)CC)n3cc(CCCCCN)nn3)CC2)n1 | 4.61
C#CCOCCOCCOCCNc1nc(N2CCN(C(=O)CCCCCCCCCCNC(=O)[C@@H](CCSC)n3cc(CCO)nn3)CC2)nc(N2CCN(C(=O)CCCCCCCCCCNC(=O)[C@H](CO)n3cc(CCCCCN)nn3)CC2)n1 | 4.40
C#CCOCCOCCOCCNc1nc(N2CCN(C(=O)CCCCCCCCCCNC(=O)[C@H]([C@@H](C)CC)n3cc(CCCCN=C(N)N)nn3)CC2)nc(N2CCN(C(=O)CCCCCCCCCCNC(=O)[C@H](CCCCN)n3cc(C)nn3)CC2)n1 | 4.67
C#CCOCCOCCOCCNc1nc(N2CCN(C(=O)CCCCCCCCCCNC(=O)Cn3cc(CCCCCN)nn3)CC2)nc(N2CCN(C(=O)CCCCCCCCCCNC(=O)[C@H]([C@@H](C)CC)n3cc(CCCCN=C(N)N)nn3)CC2)n1 | 4.89
C#CCOCCOCCOCCNc1nc(N2CCN(C(=O)CCCCCCCCCCNC(=O)[C@H](CCCCN)n3cc(CCO)nn3)CC2)nc(N2CCN(C(=O)CCCCCCCCCCNC(=O)[C@H](CCCCN)n3cc(CCO)nn3)CC2)n1 | 4.57
C#CCOCCOCCOCCNc1nc(N2CCN(C(=O)CCCCCCCCCCNC(=O)Cn3cc(CCCCCN)nn3)CC2)nc(N2CCN(C(=O)CCCCCCCCCCNC(=O)[C@H](CO)n3cc(CCCSC)nn3)CC2)n1 | 4.61
CNc1ccc2nc3ccccc3[n+](C)c2c1 | 4.94
C#CCOCCOCCOCCNc1nc(N2CCN(C(=O)CCCCCCCCCCNC(=O)[C@H](CO)n3cc(CCCSC)nn3)CC2)nc(N2CCN(C(=O)CCCCCCCCCCNC(=O)[C@H](CCCCN)n3cc(CCO)nn3)CC2)n1 | 4.44
